Consider 10 compounds from patent publication US20240391948A1, “NOVEL COMPOUND THAT INHIBITS TNF-ALPHA GENERATION AND INFLAMMASOME ACTIVITY AND PREPARATION METHOD THEREFOR” (SHAPERON INC., priority 2021, published 2024).

Common to all, as to format: cell-based
Test [1] has as its system U937 cells (human monocytic cell line). As to the kind of experiment: BzATP-induced IL-1β secretion inhibition in PMA-differentiated U937 cells. The note with it: U-937, U937 cells differentiated with PMA, read-out: IL-1β production inhibition grade (IC50). Summed up:
(§1)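 U937 cells were PMA-differentiated into macrophages and treated with compound before inflammatory stimulus. TNF-α secretion was induced with Pam2CSK4 and IL-1β secretion with BzATP. IC50 (μM) values are graded A-D, with separate cut-offs per cytokine.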

The subject of test [2] is J774A.1 (Mouse BALB/c monocyte macrophage cell line) cells. As to the kind of experiment: LPS-induced TNF-α secretion inhibition in J774A.1 cells. The note with it: J774.A1, 1 μM compound, graded compared to taurodeoxycholic acid (positive control), read-out: TNF-α production inhibition grade. Summed up: (§2)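 Mouse J774A.1 macrophages treated with 1 μM compound; TNF-α secretion measured after LPS stimulation and IL-1β secretion after LPS+ATP stimulation. Suppression graded against taurodeoxycholic acid: A over 100%, B 50–100%, C 20–50%, D under 20%.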

Test [3] shares this test system. Put plainly: LPS+ATP-induced IL-1β secretion inhibition in J774A.1 cells. The note with it: J774.A1, 1 μM compound, graded compared to taurodeoxycholic acid (positive control), read-out: IL-1β production inhibition grade. Summed up:
as §2

The subject of test [4] is U937 cells (human monocytic cell line). Put plainly: Pam2CSK4-induced TNF-α secretion inhibition in PMA-differentiated U937 cells. The note with it: U-937, U937 cells differentiated with PMA, read-out: TNF-α production inhibition grade (IC50). Summed up: as §1

Structures are written as SMILES. pIC50: −log10 of the molar value. Bounds are passed on as bounds.

The term pIC50 denotes the negative decadic logarithm of the IC50, by convention in mol/L. Broadly, the inhibition is the percentage by which the read-out fell short of the control. For the compound `C[C@H](CCC(=O)N1CCC[C@H]1CS(=O)(=O)O)[C@H]1CC[C@H]2[C@@H]3[C@H](O)C[C@@H]4C[C@H](O)CC[C@]4(C)[C@H]3C[C@H](O)[C@]12C` [NC20021], the pIC50 was 7.00 to 7.30 in test [1] and 5.70 to 6.00 in test [4]. The inhibition at 1 µM in test [2] and in test [3] was below 20% in each case.
With `C[C@H](CCC(=O)NC[C@H](C)S(=O)(=O)O)[C@H]1CC[C@H]2[C@@H]3[C@H](O)C[C@@H]4C[C@H](O)CC[C@]4(C)[C@H]3C[C@H](O)[C@]12C` [NC20022], the pIC50 is above 7.30 in test [1] and 5.70 to 6.00 in test [4]. In addition, the inhibition at 1 µM in test [2] and in test [3] was below 20% each time.
On to `C[C@H](CCC(=O)NC[C@@H](C)S(=O)(=O)O)[C@H]1CC[C@H]2[C@@H]3[C@H](O)C[C@@H]4C[C@H](O)CC[C@]4(C)[C@H]3C[C@H](O)[C@]12C` [NC20023], for which the pIC50 was 7.00 to 7.30 in test [1] and at most 5.70 in test [4]. Further, the inhibition at 1 µM in test [2] and in test [3] was below 20% throughout.
Regarding `C[C@H](CCC(=O)N[C@@H](CO)CS(=O)(=O)O)[C@H]1CC[C@H]2[C@@H]3[C@H](O)C[C@@H]4C[C@H](O)CC[C@]4(C)[C@H]3C[C@H](O)[C@]12C` [NC20024], the pIC50 is at most 6.70 in test [1] and above 6.30 in test [4]. Moreover, the values for the inhibition at 1 µM in test [2] and in test [3] were below 20% and 20 to 50%, respectively.
In the same order, the values of `C[C@H](CCC(=O)N[C@H](CO)CS(=O)(=O)O)[C@H]1CC[C@H]2[C@@H]3[C@H](O)C[C@@H]4C[C@H](O)CC[C@]4(C)[C@H]3C[C@H](O)[C@]12C` [NC20025] are at most 6.70, at most 5.70, below 20% and below 20%.
On the same counts, the results for `C[C@H](CCC(=O)N[C@@H]1CCCC[C@@H]1S(=O)(=O)O)[C@H]1CC[C@H]2[C@@H]3[C@H](O)C[C@@H]4C[C@H](O)CC[C@]4(C)[C@H]3C[C@H](O)[C@]12C` [NC20026] are 6.70 to 7.00, 5.70 to 6.00, below 20% and 50 to 100%.
In the same order, the values of `C[C@H](CCC(=O)N[C@H]1CCCC[C@H]1S(=O)(=O)O)[C@H]1CC[C@H]2[C@@H]3[C@H](O)C[C@@H]4C[C@H](O)CC[C@]4(C)[C@H]3C[C@H](O)[C@]12C` [NC20027] are above 7.30, at most 5.70, below 20% and above 100%.
Regarding `C[C@H](CCC(=O)N[C@@H](C)CS(=O)(=O)O)[C@H]1CC[C@H]2[C@@H]3[C@H](O)C[C@@H]4C[C@H](O)CC[C@]4(C)[C@H]3C[C@H](O)[C@]12C` [NC20028], the negative-log IC50 (pIC50) in test [1] is at most 6.70; in test [4] it was 5.70 to 6.00. Moreover, the inhibition at 1 µM in test [2] and in test [3] was below 20% throughout.
Regarding `C[C@H](CS(=O)(=O)O)NC(=O)CC[C@@H](C)[C@H]1CC[C@H]2[C@@H]3[C@H](O)C[C@@H]4C[C@H](O)CC[C@]4(C)[C@H]3C[C@H](O)[C@]12C` [NC20029], the pIC50 was 7.00 to 7.30 in test [1] and above 6.30 in test [4]. The inhibition at 1 µM in test [2] and in test [3] was below 20% throughout.
In the case of `CC(C)C[C@@H](CS(=O)(=O)O)NC(=O)CC[C@@H](C)[C@H]1CC[C@H]2[C@@H]3[C@H](O)C[C@@H]4C[C@H](O)CC[C@]4(C)[C@H]3C[C@H](O)[C@]12C` [NC20030], the pIC50 is at most 6.70 in test [1] and above 6.30 in test [4]. The inhibition at 1 µM in test [2] and in test [3] was below 20% throughout.
